Reference: ChEMBL document CHEMBL6078655, “Engineering of Novel Analogues That Are More Receptor-Selective and Potent than the Native Hormone, Insulin-like Peptide 5 (INSL5)” (J Med Chem, 2024)
pEC50, pKi: −log10 of the molar value. Active and inactive are the calls of the source. The calls are words filed in the database; no cut-off is given here. Where a SMILES comes first, the peptide text is derived from it. Bridges are numbered along the chain shown (N, C = ends). Roman numbers before positions name the chains, in order. [ ]: non-standard residue; d: D form. 1Nal = N[C@@H](Cc1cccc2ccccc12)C(=O)O; Agb = N=C(N)NCC[C@H](N)C(=O)O

How the values were obtained:
Relaxin-3 receptor 2 [1] = target: T1, Relaxin-3 receptor 2 (Homo sapiens, UniProt Q8TDU9); assay: Agonist activity at RXFP4 in HEK293T cells assessed as beta-arrestin2 recruitment pretreated with coelenterazine for 10 mins followed by compound addition by BRET assay; format: functional, cell-based
[2] = Selectivity index, ratio of Ki for binding affinity to SmBit-tagged RXFP3 (unknown origin) expressed in HEK cells assessed as inhibition constant to Ki for binding affinity to LgBiT-tagged RXFP4 (unknown origin) expressed in HEK cells assessed as inhibition constant; format: cell-based
Relaxin-3 receptor 1 [3] = target: T2, Relaxin-3 receptor 1 (Homo sapiens, UniProt Q9NSD7); assay: Binding affinity to SmBit-tagged RXFP3 (unknown origin) expressed in HEK cells assessed as inhibition constant incubated for 1 hr by NanoBiT assay; format: cell-based; settings: for pKi: read-out: Ki
T2 sequence (Q9NSD7 whole entry): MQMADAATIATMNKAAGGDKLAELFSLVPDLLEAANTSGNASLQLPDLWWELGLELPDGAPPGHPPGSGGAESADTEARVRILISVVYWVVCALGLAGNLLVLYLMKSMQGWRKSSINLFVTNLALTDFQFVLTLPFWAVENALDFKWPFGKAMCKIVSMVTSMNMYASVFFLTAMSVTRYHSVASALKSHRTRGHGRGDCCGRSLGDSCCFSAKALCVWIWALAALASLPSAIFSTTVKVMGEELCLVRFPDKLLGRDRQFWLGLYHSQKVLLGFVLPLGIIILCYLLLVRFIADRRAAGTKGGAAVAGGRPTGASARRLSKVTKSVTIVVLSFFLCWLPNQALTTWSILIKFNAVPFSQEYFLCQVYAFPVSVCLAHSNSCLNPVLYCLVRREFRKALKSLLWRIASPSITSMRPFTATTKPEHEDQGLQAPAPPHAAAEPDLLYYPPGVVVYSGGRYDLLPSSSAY

Relaxin-3 receptor 2 [4] = target: T1, Relaxin-3 receptor 2; assay: Agonist activity at RXFP4 (unknown origin) expressed in CHO cells co-transfected with pCRE-galactosidase reporter plasmid assessed as inhibition of forskolin-induced cAMP accumulation incubated for 6 hrs by reporter gene assay; format: functional, cell-based; settings: for pEC50: read-out: EC50
[5] = target: T3, Relaxin-3 receptor 1 (Homo sapiens) (UniProt Q9NSD7); assay: (§1) Agonist activity at RXFP3 (unknown origin) expressed in CHO cells co-transfected with pCRE-galactosidase reporter plasmid assessed as inhibition of forskolin-induced cAMP accumulation incubated for 6 hrs by reporter gene assay; format: functional, cell-based
T3 sequence (whole entry): T2 sequence (Q9NSD7 whole entry)

Relaxin-3 receptor 2 [6] = target: T1, Relaxin-3 receptor 2; assay: Binding affinity to LgBiT-tagged RXFP4 (unknown origin) expressed in HEK cells assessed as inhibition constant incubated for 1 hr by NanoBiT assay; format: cell-based
Relaxin-3 receptor 2 [7] = target: T1, Relaxin-3 receptor 2; assay: Antagonist activity at RXFP4 in HEK293T cells assessed as beta-arrestin2 recruitment pretreated with coelenterazine for 10 mins followed by compound addition by BRET assay; format: functional, cell-based
Relaxin-3 receptor 1 [8] = target: T2, Relaxin-3 receptor 1; assay: as §1; format: functional, cell-based

T1 sequence (Q8TDU9 whole entry): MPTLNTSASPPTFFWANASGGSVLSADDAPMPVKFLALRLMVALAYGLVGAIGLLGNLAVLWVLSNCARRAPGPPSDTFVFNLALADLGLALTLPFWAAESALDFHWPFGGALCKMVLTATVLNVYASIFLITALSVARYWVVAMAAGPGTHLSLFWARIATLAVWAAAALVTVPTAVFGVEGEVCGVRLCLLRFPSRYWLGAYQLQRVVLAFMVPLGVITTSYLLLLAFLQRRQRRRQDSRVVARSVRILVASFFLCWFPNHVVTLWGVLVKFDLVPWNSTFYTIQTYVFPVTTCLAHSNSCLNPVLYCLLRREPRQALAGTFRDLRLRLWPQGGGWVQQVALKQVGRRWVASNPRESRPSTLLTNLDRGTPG

| SMILES | pEC50 (Relaxin-3 receptor 2 [1]) | Ratio Ki [2] | pKi (Relaxin-3 receptor 1 [3]) | Ki (Relaxin-3 receptor 1 [3]; read-out: pKi (converted)) | pEC50 (Relaxin-3 receptor 2 [4]) | Activity [5] | pKi (Relaxin-3 receptor 2 [6]) | Activity (Relaxin-3 receptor 2 [7]) | EC50 (Relaxin-3 receptor 2 [4]; read-out: pEC50 (converted)) | pEC50 (Relaxin-3 receptor 1 [8]; cho, read-out: EC50) | EC50 (Relaxin-3 receptor 1 [8]; read-out: pEC50 (converted)) |
| --- | --- | --- | --- | --- | --- | --- | --- | --- | --- | --- | --- |
| CC[C@H](C)[C@@H]1NC(=O)[C@H](Cc2ccc(O)cc2)NC(=O)[C@H]([C@@H](C)CC)NC(=O)[C@H](C(C)C)NC(=O)[C@H]([C@@H](C)O)NC(=O)[C@H](CCCNC(=N)N)NC(=O)[C@H]([C@@H](C)CC)NC(=O)[C@H](Cc2ccc(O)cc2)NC(=O)[C@H](CCC(=O)O)NC(=O)[C@H](CC(C)C)NC(=O)CNC(=O)[C@@H](NC(=O)[C@H](CC(C)C)NC(=O)[C@H](CCCNC(=N)N)NC(=O)[C@@H](NC(=O)[C@H](CO)NC(=O)[C@H](CCC(=O)O)NC(=O)[C@@H](N)CCCCN)C(C)C)CSSC[C@H](N)C(=O)N[C@@H]([C@@H](C)O)C(=O)N[C@@H](CC(=O)O)C(=O)NCC(=O)N[C@@H](CS)C(=O)N[C@H](CO)C(=O)N[C@@H](CCSC)C(=O)N[C@@H](CCCCN)C(=O)N[C@@H](CC(=O)O)C(=O)N[C@@H](CC(C)C)C(=O)N[C@@H](CO)C(=O)N[C@@H](C)C(=O)N[C@@H](CC(C)C)C(=O)N[C@H](C(=O)O)CSSC[C@@H](C(=O)N[C@@H](C)C(=O)N[C@@H](CO)C(=O)N[C@@H](CO)C(=O)N[C@@H](CCCNC(=N)N)C(=O)N[C@@H](Cc2c[nH]c3ccccc23)C(=O)O)NC1=O | 7.21 | 38 | 6.71 | 0.295 µM | 8.10 | inactive | 8.11 |  |  |  |  |
| CC[C@H](C)[C@@H]1NC(=O)[C@H](Cc2ccc(O)cc2)NC(=O)[C@H]([C@@H](C)CC)NC(=O)[C@H](C(C)C)NC(=O)[C@H]([C@@H](C)O)NC(=O)[C@H](CCCNC(=N)N)NC(=O)[C@H]([C@@H](C)CC)NC(=O)[C@H](Cc2ccc(O)cc2)NC(=O)[C@H](CCC(=O)O)NC(=O)[C@H](CC(C)C)NC(=O)CNC(=O)[C@@H](N)CSSC[C@H](N)C(=O)N[C@@H]([C@@H](C)O)C(=O)N[C@@H](CC(=O)O)C(=O)NCC(=O)N[C@@H](C)C(=O)N[C@@H](CO)C(=O)N[C@@H](CCSC)C(=O)N[C@@H](CCCCN)C(=O)N[C@@H](CC(=O)O)C(=O)N[C@@H](CC(C)C)C(=O)N[C@@H](CO)C(=O)N[C@@H](C)C(=O)N[C@@H](CC(C)C)C(=O)N[C@H](C(=O)O)CSSC[C@@H](C(=O)NCC(=O)NCC(=O)N[C@@H](CO)C(=O)N[C@@H](CCNC(=N)N)C(=O)N[C@@H](Cc2cccc3ccccc23)C(=O)O)NC1=O (I: H-CGLEYIRTVIYICGGS[Agb][1Nal]-OH / II: H-CTDGASMKDLSALC-OH; disulfide I:1-II:1, I:13-II:14) | 7.39 | 1660 | 5.66 |  |  |  | 8.88 | inactive | 0.00912 µM | < 5.00 | > 10 µM |
| CC[C@H](C)[C@@H]1NC(=O)[C@H](Cc2ccc(O)cc2)NC(=O)[C@H]([C@@H](C)CC)NC(=O)[C@H](C(C)C)NC(=O)[C@H]([C@@H](C)O)NC(=O)[C@H](CCCNC(=N)N)NC(=O)[C@H]([C@@H](C)CC)NC(=O)[C@H](Cc2ccc(O)cc2)NC(=O)[C@H](CCC(=O)O)NC(=O)[C@H](CC(C)C)NC(=O)CNC(=O)[C@@H](N)CSSC[C@H](N)C(=O)N[C@@H]([C@@H](C)O)C(=O)N[C@@H](CC(=O)O)C(=O)NCC(=O)N[C@@H](CS)C(=O)N[C@H](CO)C(=O)N[C@@H](CCSC)C(=O)N[C@@H](CCCCN)C(=O)N[C@@H](CC(=O)O)C(=O)N[C@@H](CC(C)C)C(=O)N[C@@H](CO)C(=O)N[C@@H](C)C(=O)N[C@@H](CC(C)C)C(=O)N[C@H](C(=O)O)CSSC[C@@H](C(=O)N[C@@H](C)C(=O)NCC(=O)N[C@@H](CO)C(=O)N[C@@H](CCCNC(=N)N)C(=O)N[C@@H](Cc2c[nH]c3ccccc23)C(=O)O)NC1=O |  | 52.5 | 6.23 |  | 7.75 | inactive | 7.95 |  |  |  |  |
